According to US20160008298A1, “XANTHOHUMOL-BASED COMPOUNDS AND COMPOSITIONS THEREOF, AND METHODS OF MAKING AND USING THE SAME” (Oregon State University, priority 2014, published 2016):

How the values were obtained:
[1] = system: C2C12 skeletal muscle cells; assay: Seahorse OCR and ECAR measurements after oligomycin; format: cell-based, mouse; conditions: for increase in oxygen consumption: as summarised in Example 2
Experimental: OCR and ECAR measurements were performed with a Seahorse XF 24 Analyzer (Seahorse Bioscience). Cells were plated 24 hours prior to measurements at a density of 40,000 cells per well within growth medium in a 24-well plate. The cells were then allowed to adhere for 24 hours (37° C., 5% CO2). Prior to the assay, the cells were washed with freshly prepared running media consisting of Seahorse XF Assay medium (Seahorse Bioscience, North America, USA), 10 mM glucose and 1 mM sodium pyruvate. The pH of the medium was adjusted to 7.4 with 1 M NaOH. The cells were then equilibrated for one hour at 37° C. without CO2. The compounds were injected during the assay; OCR and ECAR were measured at 9 minutes measurement intervals. The solutions of oligomycin, FCCP, XN, DXN and TXN were freshly prepared in running medium. The final concentrations in the wells were: 1 μM for oligomycin, 5 μM for XN, DXN and TXN and 2, 5, 8, 25 μM for the dose response experiments with DXN. Ethanol was added to the control wells not to exceed a final concentration of 0.1%. All the compounds were tested in quadruplicate on the 24-well plate. XN is highly non-polar and FBS can be used to dissolve XN. Thus, XN, DXN and TXN were first dissolved in ethanol and the resulting solutions were diluted 100-fold in running medium containing 1% of FBS. After a further 10-fold dilution into the media in wells, only 0.1% of FBS was present during OCR measurements. […] The concentration of oligomycin and the cell density used were selected based on preliminary experiments.
Seahorse data were analyzed in SAS 9.2 (SAS Institute Inc., Cary, N.C.). To show a consistent baseline, OCR values (in pmol/min/mg protein) and ECAR values (in mpH/min/mg protein) for each value were divided prior to statistical analysis by the average of the four pre oligomycin treatment values (0, 8, 17, and 25 minutes) for the corresponding well and are shown as % pre oligomycin values. The original scale for OCR and for ECAR values was utilized for the OCR/ECAR ratio (in pMol/mpH). To account for repeated measures within wells over time, a repeated-measures-in-time design using ANOVA procedures in PROC MIXED was used. Fixed effects in the model were treatment (control, 2 μM DXN, 5 μM XN, 5 μM DXN, and 5 μM TXN for the compound study and control, 2, 5, 8, and 25 μM DXN for the DXN dosage study), time (0, 8, 17, 25, 34, 43, 52, 60, 69, 78, 86, and 95 minutes), and their interaction. The random effect was the experiment (5 experiments for the compound study and 3 experiments for the DXN dosage study). To account for repeated measures within wells over time, a first order homogeneous variance-covariance matrix [AR(1)] was fitted for each well. Using the ESTIMATE statement, a priori contrasts were constructed by comparing the changes in compound treated cells from the last two time points prior to compound treatment (average 52 and 60 minutes) to the changes in control cells during the same time period. This was done for each compound and dosage for 69, 78, 86, and 95 minutes separately and for all four time points combined. […] A P-value of 0.05 was considered statistically significant and is shown as star in the graphs (FIG. 5).

[2] = system: C2C12 mouse myocytes; assay: Cellular uptake by LC-MS/MS; format: in vitro ADME; conditions: 5 μM, one hour
Experimental: Cellular uptake investigations were performed using C2C12 mouse myocytes. Cells were cultured in 75 cm2 flasks using Dulbecco's Modified Eagle Medium (DMEM) obtained from Sigma-Aldrich, which was supplemented with 10% Fetal Bovine serum (FBS) and 1% penicillin/streptomycin solution (PS). Cultures were maintained in an incubator at 37° C. and 5% CO2.
Uptake comparisons were conducted by seeding three 12-well plates with 1 mL of C2C12 cells in suspension with a density of 100,000 cells/mL, which were then incubated until confluent. Four treatment groups were compared, including XN, DXN, TXN and a no compound control. Each compound was tested in quadruplicate in the presence of cells and in medium not exposed to cells. Medium not exposed to cells was examined for compound concentration to help account for protein binding in medium. Confluent cells were subsequently treated with fresh DMEM containing 1% FBS, 1% PS, as well as 5 μM XN, DXN, or TXN and incubated at 37° C. and 5% CO2 for one hour. Following incubation, cell medium was collected and the cells were washed once using Hanks Balanced Salt Solution (HBSS). HBSS was then aspirated, and 0.5 mL of cell extraction buffer (50% methanol:ethanol, v:v) was added to each well and the plates were covered with a plastic adhesive plate cover. The plates were placed in a freezer and maintained at −80° C. for 24 hours. After freezing, the plates were removed from the freezer and the cells were removed from the wells using a cell scraper and collected. An additional 0.5 mL of extraction buffer was added to each well as a rinse, which was collected and added to the cell extracts. […]
All cell culture samples were analyzed by LC-MS/MS using an Applied Biosystems API 4000 Q-trap triple quadrupole mass spectrometer. […] Once concentrations could be determined, mass balance of XN, DXN or TXN was calculated based on the average total volume of the sample, approximately 0.995 mL for cell medium, and 0.75 mL for cellular extracts.

[3] = Mouse feeding experiment, weight gain; format: in vivo; conditions: 30 mg/kg/day in high fat diet, 12 weeks
Experimental: Over the course of 12 weeks, mouse weights were recorded once per week and the average weights were calculated for each group.

[4] = system: C57BL6/J mice; assay: Plasma metabolites at sacrifice; format: in vivo, mouse; conditions: 14 weeks, 30 mg/kg/day; for Mean fasting plasma glucose at time of sacrifice: 6 hour fast, control 158.2±29.6; for Insulin level average: control 1.01±0.44; for Average plasma triglycerides: control 87.5±6.6; for Plasma cholesterol average: control 173.9±31.9
Experimental: The total number of C57BL6/J mice was 48, with 12 mice belonging to each of 4 treatment groups. Duration of the feeding was 14 weeks. Mouse feed contained high fat content (60% of kCal), and was supplemented with XN, DXN, or TXN in the treatment groups. XN, DXN and TXN content within the mouse diet were designed to deliver a dose of 30 mg/kg/day body weight. Food intake was measured three times per week by weighing the food pellet before placement in the cage, and at the time of feed changing by weighing uneaten food. Mice were unrestricted in dietary intake, being allowed to eat as much food as desired. Mice were weighed once per week. Groups included low dose (30 mg/kg) XN, DXN, TXN and no supplement control. Mice were maintained in accordance with the Oregon State University Institutional Animal Care and Use Committee (IACUC) regulations. One mouse was maintained on a standard AIN-93M chow diet to be used as a healthy reference during glucose tolerance assays.
Plasma was collected at sacrifice (14 weeks) to analyze for plasma glucose, triglycerides, cholesterol and insulin. Plasma glucose was assayed using the Wako Autokit Glucose kit (Wako Pure Chemical Industries, Ltd.). […] Samples were allowed to incubate for 5 minutes, and then the absorbance of each well was measured at a wavelength of 505 nm using a SpectraMax 190 spectrophotometer. Glucose was calculated using a 6-point calibration curve containing concentrations of 0, 25, 50, 100, 200 and 400 mg/dL.
Plasma triglycerides were measured using the Infinity™ Triglycerides Reagent kit (Thermo Fisher Scientific, Inc.). […] Absorbance at 500 nm was then measured on a SpectraMax 190 spectrophotometer. Triglyceride levels were calculated from a 6-point calibration curve.
Plasma cholesterol was measured using the Infinity™ Cholesterol Liquid Stable Reagent assay kit (Thermo Fisher Scientific, Inc.). Five μL of plasma from each sample was combined with 195 μL of Infinity™ Cholesterol Liquid Stable Reagent (50 mM phosphate buffer (pH 6.7) containing 200 U/L cholesterol oxidase, 500 U/L cholesterol esterase, 300 U/L peroxidase (horseradish), 0.25 mM 4-aminoantipyrine, 10 mM hydroxybenzoic acid) and incubated for 5 minutes at room temperature. Cholesterol absorbance was then measured using a SpectraMax 190 spectrophotometer at 500 nm, and concentrations were calculated using a 6-point calibration curve.
Plasma insulin levels were assayed using the ALPCO 80-INSMS-E01 mouse insulin enzyme-linked immunosorbent assay (ELISA) kit (ALPCO diagnostics, Salem, N.H.). Ten μL of plasma from each sample was loaded into a 96-well plate (provided in kit) and combined with 75 μL of provided conjugate buffer. The plate was placed on a shaker and incubated for 2 hours at room temperature while shaking at 800 rpm. The buffer was then discarded and the wells were washed 5 times with 100 μL of provided wash buffer. […] After incubation, 100 μL of stop solution was added to each well, and the plate was analyzed on a SpectraMax 190 spectrophotometer at 450 nm. Sample insulin concentrations were calculated using a 6-point calibration curve.

[5] = 5 μM, after oligomycin 1 μM, compound study, five independent experiments
[6] = 5 μM, oligomycin 1 μM, compound study, average of five independent experiments

Structure (SMILES)	decrease in ECAR ([1]; 2 μM, DXN dosage study) [%]	increase in OCR in the presence of oligomycin ([1]; 2 μM, DXN dosage study, three independent experiments) [%]	decrease in ECAR ([1]; 2 μM, after oligomycin 1 μM, compound study, five independent experiments) [%]	increase in OCR in the presence of oligomycin ([1]; 2 μM, oligomycin 1 μM, compound study, average of five independent experiments) [%]	decrease in ECAR ([1]; 5 μM, DXN dosage study) [%]	increase in OCR in the presence of oligomycin ([1]; 5 μM, DXN dosage study, three independent experiments) [%]	decrease in ECAR [1, 5] [%]	increase in oxygen consumption ([1]; 5 μM)	increase in OCR in the presence of oligomycin [1, 6] [%]	decrease in ECAR ([1]; 8 μM, DXN dosage study) [%]	increase in OCR in the presence of oligomycin ([1]; 8 μM, DXN dosage study, three independent experiments) [%]	OCR response in the presence of oligomycin ([1]; 25 μM, DXN dosage study)	decrease in ECAR ([1]; 25 μM, DXN dosage study) [%]	cellular uptake (of total amount of compound applied to cells) [2]	weight gain compared to the control [3]	Mean fasting plasma glucose at time of sacrifice [4] [mg/dL]	Insulin level average [4] [ng/mL]	Average plasma triglycerides [4] [mg/dL]	Plasma cholesterol average [4] [mg/dL]	effect on OCR at higher concentrations [1]
COc1cc(O)c(CC=C(C)C)c(O)c1C(=O)CCc1ccc(O)cc1 [DXN, α,β-dihydroxanthohumol]	8.0±2.4	6±6	5.9±2.0	8.9±7.0	25.2±2.3	30.8±6.0	17.8±2.0	20%	28.7±6.9	31.6±2.3	55.1±6.0	initial increase in the OCR that was immediately followed by a sharp decrease	49.8±2.3	7.8%	followed DXN, then XN	150.5 ± 45.0	1.04 ± 0.77	84.5 ± 4.9	167.2 ± 33.3	
COc1cc(O)c(CCC(C)C)c(O)c1C(=O)CCc1ccc(O)cc1 [TXN, tetrahydroxanthohumol]							27.5±2.0	50%	56.8±6.9					6.9%	most dramatic reduction in weight gain compared to the control	116.1 ± 24.1	0.500 ± 0.24	76.4 ± 7.8	160.7 ± 30.7	tended to inhibit OCR
COc1cc(O)c(CC=C(C)C)c(O)c1C(=O)/C=C/c1ccc(O)cc1 [XN, xanthohumol]							4.7±2.0	approximately 10%	11.3±6.9					approximately 6.6%	followed DXN, then XN	169.1 ± 28.7	1.19 ± 0.68	80.7 ± 4.2	196.2 ± 28.3	tended to inhibit OCR
